These results are taken from US20220081395A1, “DISULPHIDE COMPOUNDS” (NEEM BIOTECH LIMITED, priority 2019, published 2022).

Molecules are shown by their SMILES.

Holding throughout (assay type): cell-based
Test [1] has as its system Staphylococcus aureus. Briefly: Minimum Biofilm Inhibition Concentration (MBIC) assay, biofilm formation, crystal violet. Particulars: IC50 of compound as % of IC50 of ajoene in the same experiment; <100% more effective than ajoene. The procedure:
(§1) Compounds were assayed for their ability to inhibit S. aureus or P. aeruginosa biofilm formation as follows.
(§2) All compounds were prepared as a 30 mM stock in DMSO and diluted in tryptic soy broth (TSB) to 48 μM (S. aureus) or 144 μM (P. aeruginosa). The compounds were further serially diluted two-fold from 48 μM to 0.75 μM (S. aureus) or 144 μM to 2.3 μM (P. aeruginosa) and added to a 96-well plate at 100 μl per well. Overnight cultures of bacteria were diluted to an OD600=0.07 in fresh TSB and 100 μl of the diluted bacterial culture was added to the compound containing wells. The bacteria were incubated in the presence of the compounds overnight at 37° C. After incubation, the planktonic bacteria were removed by three washes using H2O and the remaining biofilm was stained using crystal violet and quantified photometrically at A570. Absorbances corresponding to biofilm mass were plotted versus compound concentration and IC50 values were calculated. Reference: O'Toole G A, Microtiter Dish Biofilm Formation Assay J. Vis. Exp (2011).
(§3) MBIC assays of the compounds are carried out alongside ajoene for reference and standardization. The IC50 of ajoene against S. aureus and P.aeruginosa is well-defined and reproducible allowing ajoene to serve as an effective control for the experiment. As such, the IC50 calculated for the tested compounds are compared to the IC50 of ajoene in every experiment and are therefore represented as % of ajoene.

Test [2] concerns Pseudomonas aeruginosa. The test is described as above. Conditions: IC50 of compound as % of IC50 of ajoene in the same experiment; <100% more effective than ajoene. The procedure:
as §1, §2, §3

Test [3] concerns S. aureus. Briefly: Bacterial Exudate Scratch Test (BEST), HaCaT monolayer exposed to S. aureus exudate. How it is done: (§4) Bacterial cultures (S. aureus and P. aeruginosa) were grown prophylactically with test compounds for 24 hours and exudates were collected.
(§5) Microorganisms were prepared by growing in tryptone soy broth (TSB) at 37° C., 150 rpm for 16 hours.
(§6) The exudates were obtained by first placing in a 24-well plate, 1 mL of each compound treated media and vehicle control media in triplicate. 1 mL of untreated TSB was then added to 3 wells for an untreated control and 2 mL TSB was added to 3 wells for sterility control. Except for the sterility control wells, 1 mL of bacterial suspension was added to each well and mixed well. The plate was then incubated in a humidified incubator at 37° C. for 24 hours at 75 rpm. Following the appropriate incubation time, the entire contents of the well were removed and transferred into a sterile centrifuge tube. The tube was then centrifuged at 10,000 rpm for 10 minutes at 4° C. to pellet the biomass. The supernatant was filtered using a Luer Lock […] filter into another sterile tube. The exudate was aliquoted into 500 μl aliquots in 0.5 mL PCR tubes. […]
(§7) The plates were incubated for 20 hours at 37° C., 5% CO2 and images were taken at the time points as required. Scratch ‘size’ was analysed using ImageJ software.
(§8) The rate of cellular proliferation of the HaCaT cells is calculated at 20 hours as a percentage of the initial scratch size at 0 hours.

The test system of test [4] is P. aeruginosa. Briefly: Bacterial Exudate Scratch Test (BEST), HaCaT monolayer exposed to P. aeruginosa exudate. The procedure:
as §4, §5, §6, §7, §8

The subject of test [5] is P. aeruginosa biofilms. Briefly: Inhibition of respiration/viability of established biofilms grown in artificial sputum medium (TTZ viability assay), with tobramycin. Conditions: established 24 h biofilms in ASM, compound 5 hours, then 10 μg/ml tobramycin 16 hours; FIG. 3. The procedure:
Compound B was tested for its efficacy to inhibit P. aeruginosa biofilms in artificial sputum medium (ASM) as follows. Overnight cultures of P. aeruginosa were re-seeded to an OD595=0.07 and further diluted 1:100 in ASM and grown for 24 hours at 37° C. to allow for biofilm formation. Compound B was prepared as 30 mM stock in 100% DMSO and established biofilms were treated with the compound at increasing concentrations or left untreated for 5 hours at 37° C. All samples were then treated with 10 μg/ml tobramycin for 16 hours at 37° C. The artificial sputum was liquified using sputasol. The respiratory potential of the biofilms was quantified using a tetrazolium chloride (2,3,5-triphenyl tetrazolium chloride (TTZ)) viability assay.

Regarding `COc1ccc(CSSc2ccccc2C[S+]([O-])Cc2ccccc2)cc1` (centres unmarked), the “S. aureus MBIC: % of Ajoene positive control IC50” value (from here on “S. aureus MBIC: %”) in test [1] is given as 4 % of Ajoene. Further, the “P. aeruginosa MBIC: % of Ajoene positive control IC50” value (shortened to “P. aeruginosa MBIC: %”) in test [2] is given as 58 % of Ajoene.
In the same order, the values of `CC(C)CSSc1cccc(C[S+]([O-])Cc2ccccc2)c1` (centres unmarked) are 90 % of Ajoene and 32 % of Ajoene.
For the molecule `C=CCSSc1cccc(CS(=O)(=O)Cc2ccccc2)c1` [drawing 83], the “scratch area at 20 hours” value in test [3] (HaCaT exposed to S. aureus exudate pre-treated with test compound (125 pM), vehicle 66% remaining) was “almost complete closure of the scratch area”. In addition, the “effect on inhibition of scratch closure in HaCaT cells” value in test [3] (prophylactic (pre-biofilm) treatment of S. aureus with 125 pM test compound, versus vehicle pre-treatment, FIG. 4) is “completely rescues the inhibition of scratch closure”; in test [4] (prophylactic (pre-biofilm) treatment of P. aeruginosa with 250 μM test compound, versus vehicle pre-treatment, FIG. 5), “reduces the inhibition of scratch closure”. Besides, the “scratch area at 20 hours (percentage of initial scratch size at 0 hours)” value in test [4] (HaCaT exposed to P. aeruginosa exudate pre-treated with test compound (250 μM), vehicle 109%, no exudate 9%) stood at 64%.
Turning to `C=CCSSc1cccc(CS(=O)(=O)Cc2ccccc2)c1` [drawing 76], the “S. aureus MBIC: %” value in test [1] was 5 % of Ajoene. Further, in test [2], the “P. aeruginosa MBIC: %” value was 82 % of Ajoene.
Consider `O=S(=O)(Cc1ccccc1)Cc1cccc(SSCc2ccc(F)cc2)c1`, for which, in test [1], the “S. aureus MBIC: %” value is on record as 69 % of Ajoene. Moreover, in test [2], the “P. aeruginosa MBIC: %” value is 35 % of Ajoene.
In the same order, the values of `[O-][S+](Cc1ccccc1)Cc1cccc(SSCc2ccccc2)c1` (centres unmarked) are 62 % of Ajoene and 21 % of Ajoene.
In the same order, the values of `COc1ccc(CSSc2cccc(C[S+]([O-])Cc3ccccc3)c2)cc1` (centres unmarked) are 43 % of Ajoene and 20 % of Ajoene.
In the same order, the values of `[O-][S+](Cc1ccccc1)Cc1cccc(SSCc2ccc(C(F)(F)F)cc2)c1` (centres unmarked) are 34 % of Ajoene and 32 % of Ajoene.
As for `[O-][S+](Cc1ccccc1)Cc1ccccc1SSCc1ccccc1` (centres unmarked), the “S. aureus MBIC: %” value in test [1] is reported as 89 % of Ajoene. Moreover, in test [2], the “P. aeruginosa MBIC: %” value is reported as 39.9 % of Ajoene.
As to `CSSc1cccc(CS(=O)(=O)Cc2ccccc2)c1` [Compound B, 1-(methyldisulfanyl)-3-(phenylmethanesulfonylmethyl)benzene], the “effect on efficacy of tobramycin to inhibit biofilm respiration/viability” value in test [5] is reported as “enhances the efficacy of tobramycin”.
Regarding `CCC(C)CSSc1cccc(CS(=O)(=O)Cc2ccccc2)c1` (centres unmarked), the “S. aureus MBIC: %” value in test [1] is on record as 11 % of Ajoene. In addition, the “P. aeruginosa MBIC: %” value in test [2] is 94 % of Ajoene.
The like results for `C=CCSSc1ccccc1C[S+]([O-])Cc1ccccc1` (centres unmarked) were, in that order, 89 % of Ajoene and 76 % of Ajoene.
Turning to `C=CCSSc1cccc(CS(=O)(=O)Cc2ccco2)c1`, the “S. aureus MBIC: %” value in test [1] is given as 22 % of Ajoene. Further, in test [2], the “P. aeruginosa MBIC: %” value is listed as 100 % of Ajoene.
In the same order, the values of `CCC(C)CSSc1cccc(C[S+]([O-])Cc2ccccc2)c1` (centres unmarked) are 22.5 % of Ajoene and 15 % of Ajoene.
